Consider 39 compounds from patent US20250304600A1, “PHARMACEUTICAL COMPOUNDS AND COMPOSITIONS AS c-KIT KINASE INHIBITORS” (Enanta Pharmaceuticals, Inc., priority 2023, published 2025).

Experiment [1] deals with M-07e cells which endogenously express human c-KIT. Kind of experiment: M-07e cellular assay: SCF-mediated cell proliferation (CellTiter Glo). The format is cell-based. The following applies: 72 h, SCF-mediated proliferation of M-07e cells. Here is the method: M-07e cells (Creative Bioarray, CSC-C0249) which endogenously express human c-KIT were used to evaluate the effect of compounds on stem cell factor (SCF)-mediated cell proliferation. M-07e cells were cultured in growth media (RPMI+10% FBS+1% penicillin/streptomycin+10 ng/mL GM-CSF) at 5E5-1.5E6 cells/mL, replenishing media every 3-4 days. 1.5E4 cells were seeded per well in 384 well tissue culture treated plates in […] assay media (RPMI+10% FBS+1% penicillin/streptomycin) without growth factor stimulation and incubated at 37° C. in a CO2 humidity-controlled incubator. Twenty-four hours later, three-fold serially diluted test compounds in media containing SCF (at the previously determined EC90) were added to the plated M-07e cells and incubated for an additional 72 hours. Cell viability was determined by adding 25 μL CellTiter Glo (Promega) to the cells and the luminescence was measured using a Perkin Elmer Envision plate reader. The EC50 was determined using GraphPad Prism. Percent cell growth was determined after normalizing the curve to the mean RLU high control (no compound control wells) at 100% and the mean RLU low control (no SCF control wells) at 0%.

The target in experiment [2] is T1, Recombinant human c-KIT kinase (Homo sapiens, UniProt P10721).
T1 construct: purchased Promega V4498
T1 sequence (P10721 544-976 limits assumed): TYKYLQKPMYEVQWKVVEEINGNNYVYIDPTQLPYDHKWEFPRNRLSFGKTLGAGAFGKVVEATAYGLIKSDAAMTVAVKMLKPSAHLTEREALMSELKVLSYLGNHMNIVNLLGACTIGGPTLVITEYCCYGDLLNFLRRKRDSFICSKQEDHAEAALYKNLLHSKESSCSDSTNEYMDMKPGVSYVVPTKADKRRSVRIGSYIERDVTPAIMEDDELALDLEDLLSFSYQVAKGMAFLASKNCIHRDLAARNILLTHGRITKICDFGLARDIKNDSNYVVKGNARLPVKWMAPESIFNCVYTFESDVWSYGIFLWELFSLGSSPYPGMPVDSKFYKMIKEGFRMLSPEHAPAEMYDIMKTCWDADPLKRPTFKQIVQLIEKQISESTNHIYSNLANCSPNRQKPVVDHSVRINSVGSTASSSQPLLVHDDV
Kind of experiment: c-KIT kinase chemiluminescence assay (ADP-Glo). The format is biochemical. The following applies: ATP 50 μM. How it is done: The c-KIT Kinase Enzyme System (V4498) and ADP-Glo™ Kinase Assay kit (V6930) were purchased from Promega (Madison, WI). DMSO (D2650) was purchased from Sigma-Aldrich (Burlington, MA).
c-KIT Kinase Chemiluminescence Assay:
Kinase Reaction: The kinase assay was based on the recommended protocol by c-KIT Kinase Enzyme System from Promega. Recombinant human c-KIT kinase in 3 μL of assay buffer (40 mM Tris pH 7.5, 20 mM MgCl2, 0.1 mg/mL BSA and 50 μM DTT) was added to the test or high control wells and 3 μL of assay buffer was added to the low control wells. The microplate was centrifuged at 800 rotations per minute (rpm) for 60 s and incubated at room temperature (RT) for 30 min. Next, 2 μL of buffered ATP and polyEY substrate solution was added to all wells. The microplate was centrifuged at 800 rpm for 60 s and incubated at RT for 2 h.
ADP detection with ADP-Glo™ Kinase Assay: After the kinase reaction incubation, 5 μL of ADP-Glo™ reagent was added to all wells. The microplate was centrifuged at 800 rpm for 60 s and incubated at RT for 40 min. Ten microliter (10 μL) of Kinase Detection Reagent (Luciferin-Luciferase system) was then added to all wells. The microplate was centrifuged at 800 rpm for 60 s and incubated at RT for 60 min. Kinase activity was measured as an increase in luminescence at RT in an Envision plate reader equipped with 560 nm filters and operating in endpoint mode.
Data Analysis: Endpoint chemiluminescence from high and low control wells were used to calculate normalized c-KIT activity at various concentrations of test compounds. The normalized activities were fitted to inhibitor-versus-normalized response fit in GraphPad Prism 7 to determine half-maximal inhibitory concentration (IC50) and hill coefficient values (H).
Where I is the inhibitor concentration and H is the Hill coefficient.

A value given as a limit tells only on which side of the number the result lay.

Regarding `Cc1ncc(-c2noc(C3C[C@@H]3F)n2)cc1NC(=O)c1cnn2ccc(-c3cn(C[C@H](O)C(C)(C)O)nc3C3CC3)cc12` (some centres unmarked) [Example 406], the EC50 in experiment [1] is below 100 nM. The 50% inhibitory concentration (IC50) in experiment [2] was below 100 nM. In turn, `Cc1cc(F)c(-c2noc(C3CC(OC(F)F)C3)n2)cc1NC(=O)c1cnn2ccc(N3CC4(COC4)C3)cc12` (centres unmarked) [Example 281-58] returned an EC50 in experiment [1] of 100 to 1000 nM. The half-inhibitory concentration (IC50) in experiment [2] fell in the range of 100 to 1000 nM. Regarding `Cc1ccc(-c2noc([C@H]3C[C@@H]3C(F)F)n2)cc1NC(=O)c1cnn2ccc(-c3c(C)nc(N)nc3C)cc12` [Example 390], the EC50 in experiment [1] lay in the range of 100 to 1000 nM. Besides, in experiment [2], the half-inhibitory concentration (IC50) lay within 100 to 1000 nM. As for `Cc1ncc(-c2nnn(C[C@@H](O)C(F)(F)F)n2)cc1NC(=O)c1cnn2ccc(N3CC4(C3)CC(O)(C(F)F)C4)cc12` [Example 381], the EC50 in experiment [1] was in the range of 100 to 1000 nM. Besides, the IC50 in experiment [2] is 100 to 1000 nM. Compound `Cc1ccc(-c2noc([C@H]3C[C@@H](OC(F)F)C3)n2)cc1NC(=O)c1cnn2ccc(N3CC4(COC4)C3)cc12` [Example 242] came in with an EC50 in experiment [1] below 100 nM. In the case of `Cc1ncc(-c2noc([C@H]3C[C@@H]3C(F)F)n2)cc1NC(=O)c1cnn2ccc(-c3c(C)nc(N)nc3C)cc12` [Example 391], the EC50 in experiment [1] is above 1000 nM. Also, the IC50 in experiment [2] is above 1000 nM. In turn, `C#Cc1ccc2c(C(=O)Nc3cc(-c4noc([C@H]5C[C@@H]5F)n4)ccc3C)cnn2c1` [Example 106] showed an EC50 in experiment [1] below 100 nM. As to `O=C(Nc1cc(-c2ncc(C3CC3)cn2)ccc1C(F)F)c1cnn2ccc(Br)cc12` [Example 392], the EC50 in experiment [1] is above 1000 nM. In experiment [2], the concentration for half-maximal inhibition (IC50) was above 1000 nM. Turning to `Cc1ccc(-c2noc(C3C[C@@H]3F)n2)cc1NC(=O)c1ccc(NC(=O)OC(C)(C)C)nc1` (some centres unmarked) [Example 396], the EC50 in experiment [1] was above 1000 nM. The IC50 in experiment [2] is above 1000 nM.

For the compound `Cc1ncc(-c2nnn(C[C@H](O)C(F)F)n2)cc1NC(=O)c1cnn2ccc(N3CC4(C3)CC(O)(C(F)F)C4)cc12` [Example 378], in experiment [1], the EC50 is 100 to 1000 nM. Also, in experiment [2], the IC50 fell in the range of 100 to 1000 nM. For `Cc1ncc(-c2noc(C3C[C@@H]3C(F)F)n2)cc1NC(=O)c1ccc(NC(=O)OC(C)(C)C)nc1` (some centres unmarked) [Example 399], the EC50 in experiment [1] is above 1000 nM. Further, in experiment [2], the 50% inhibitory concentration (IC50) is above 1000 nM. `Cc1ncc(-c2ncc(OC(F)(F)F)cn2)cc1NC(=O)c1cnn2ccc(-c3c(C)nc(N)nc3C)cc12` [Example 364]: the IC50 in experiment [2] is above 1000 nM.

In turn, `CCn1nnc(-c2cnc(C)c(NC(=O)c3cnn4ccc(N5CC6(C5)CC(O)(C(F)F)C6)cc34)c2)n1` [Example 382] returned an EC50 in experiment [1] below 100 nM. Further, in experiment [2], the half-maximal inhibitory concentration (IC50) fell in the range of 100 to 1000 nM. The matching figures for `Cc1ncc(-c2nnn[nH]2)cc1NC(=O)c1cnn2ccc(N3CC4(C3)CC(O)(C(F)F)C4)cc12` [Example 394]: above 1000 nM and above 1000 nM. The compound `O=C(Nc1cn(-c2ccc(C3CC3)cc2)nc1C(F)F)c1cnn2ccc(N3CC4(COC4)C3)cc12` [compound 373] had an EC50 in experiment [1] above 1000 nM. `Cc1ccc(-c2noc([C@H]3C[C@@H]3F)n2)cc1NC(=O)c1cnc(-c2ccc3nn(CC(C)(C)O)c(C)c3c2)o1` [Example 21a] registered an EC50 in experiment [1] below 100 nM. Also, the IC50 in experiment [2] is below 100 nM.

The compound `Cc1ncc(-c2noc([C@H]3C[C@@H]3C(F)F)n2)cc1NC(=O)c1ccc(N)nc1` [Example 401] yielded an EC50 in experiment [1] of 100 to 1000 nM. Moreover, the half-inhibitory concentration (IC50) in experiment [2] was above 1000 nM. `Cc1ncc(-c2ccn3ncc(C(=O)Nc4cc(-c5noc([C@H]6C[C@@H]6F)n5)ccc4C)c3c2)c(C)n1` [Example 168]: in experiment [2], the IC50 was below 100 nM. For the compound `Cc1ncc(-c2noc(C3CC(OC(F)F)C3)n2)cc1NC(=O)c1cnn2ccc(N3CC4(C3)CC(O)(C(F)F)C4)cc12` (centres unmarked) [Example 281-44], the half-maximal effective concentration (EC50) in experiment [1] is below 100 nM. Further, in experiment [2], the 50% inhibitory concentration (IC50) is below 100 nM. Turning to `Cc1ncc(-c2nnc(C3C[C@@H]3F)o2)cc1NC(=O)c1cnn2ccc(N3CC4(C3)CC(O)(C(F)F)C4)cc12` (some centres unmarked) [Example 404], the EC50 in experiment [1] was in the range of 100 to 1000 nM. Also, the concentration for half-maximal inhibition (IC50) in experiment [2] fell in the range of 100 to 1000 nM. With `Cc1ncc(-c2nc([C@H]3C[C@@H]3F)cs2)cc1NC(=O)c1cnn2ccc(N3CC4(C3)CC(O)(C(F)F)C4)cc12` [Example 405], the 50% effective concentration (EC50) in experiment [1] is below 100 nM. In addition, in experiment [2], the IC50 lay in the range of 100 to 1000 nM.

Compound `Cc1ncc(-c2ncc(OC(F)(F)F)cn2)cc1NC(=O)c1cnn2ccc(N3CC4(C3)CC(O)(C(F)F)C4)cc12` [Example 313] registered an EC50 in experiment [1] below 100 nM. Also, the IC50 in experiment [2] was in the range of 100 to 1000 nM. The matching figures for `Cc1ncc(-c2nnn(CC(C)(C)C#N)n2)cc1NC(=O)c1cnn2ccc(N3CC4(C3)CC(O)(C(F)F)C4)cc12` [Example 383]: 100 to 1000 nM and 100 to 1000 nM. `Cc1ccc(-c2noc([C@H]3C[C@@H]3F)n2)cc1NC(=O)c1cnc(N2CC(C(=O)O)C2)s1` [Example 98-4] displayed a 50% effective concentration (EC50) in experiment [1] above 1000 nM. In experiment [1], `COC(=O)N1CC(c2nc(-c3cc(NC(=O)c4cnn5ccc(N6CC7(C6)CC(O)(C(F)F)C7)cc45)c(C)s3)no2)C1` [Example 388] showed an EC50 below 100 nM. For the same compound, the concentration for half-maximal inhibition (IC50) in experiment [2] was below 100 nM.

`Cc1ccc(-c2noc([C@H]3C[C@@H]3F)n2)cc1NC(=O)c1cnc2n1Cc1ccccc1-2` [Example 99]: the half-inhibitory concentration (IC50) in experiment [2] was below 100 nM.

As to `Cc1ccc(-c2nc([C@H]3C[C@@H]3F)cs2)cc1NC(=O)c1cnn2ccc(N3CC4(COC4)C3)cc12` [Example 309], in experiment [2], the IC50 is below 100 nM. As for `Cc1ncc(-c2nnn(CCO)n2)cc1NC(=O)c1cnn2ccc(N3CC4(C3)CC(O)(C(F)F)C4)cc12` [Example 387], the concentration giving a half-maximal response (EC50) in experiment [1] was above 1000 nM. Also, in experiment [2], the concentration for half-maximal inhibition (IC50) is above 1000 nM.

For `Cc1nn(-c2ccc(C3CC3)cc2)cc1NC(=O)c1cnn2ccc(N3CC4(COC4)C3)cc12` [Example 372], the half-inhibitory concentration (IC50) in experiment [2] was above 1000 nM. As for `Cc1ncc(-c2nnn(C3CCC(F)(F)CC3)n2)cc1NC(=O)c1cnn2ccc(N3CC4(C3)CC(O)(C(F)F)C4)cc12` [Example 385], the EC50 in experiment [1] is below 100 nM. Besides, the IC50 in experiment [2] was below 100 nM. The compound `Cc1ncc(-c2noc(N3CC(O)(C(F)(F)F)C3)n2)cc1NC(=O)c1cnn2ccc(N3CC4(C3)CC(O)(C(F)F)C4)cc12` [Example 389] registered a 50% effective concentration (EC50) in experiment [1] above 1000 nM. In experiment [2], the IC50 was above 1000 nM. As for `Cc1ccc(-c2noc([C@H]3C[C@@H]3F)n2)cc1NC(=O)c1cnc2cccnn12` [Example 16], the IC50 in experiment [2] was above 1000 nM. On the same count and under the same terms, for `Cc1nc(N)nc(C)c1-c1ccn2ncc(C(=O)Nc3cc(-c4noc([C@H]5C[C@@H]5F)n4)sc3C)c2c1` [Example 370] the value was above 1000 nM.

On to `Cc1ncc(-c2nnc(C3C[C@@H]3F)s2)cc1NC(=O)c1cnn2ccc(N3CC4(C3)CC(O)(C(F)F)C4)cc12` (some centres unmarked) [Example 407], for which the half-maximal effective concentration (EC50) in experiment [1] was below 100 nM. The half-maximal inhibitory concentration (IC50) in experiment [2] is 100 to 1000 nM. In the case of `Cc1nc(N)nc(C)c1-c1ccn2ncc(C(=O)Nc3cc(-c4noc([C@H]5C[C@@H](OC(F)(F)F)C5)n4)sc3C)c2c1` [Example 368], the half-inhibitory concentration (IC50) in experiment [2] was above 1000 nM. Still for that read-out and setting: the figure for `Cc1ccc(-c2noc([C@H]3C[C@@H]3F)n2)cc1NC(=O)c1cnc(-c2cnc(N)nc2)o1` [Example 308-64] is above 1000 nM; for `Cc1nc(N)nc(C)c1-c1ccn2ncc(C(=O)Nc3cc(-c4noc(C5CN(C(=O)OC(C)(C)C)C5)n4)sc3C)c2c1` [Example 369] it is above 1000 nM; for `Cc1nc(N)nc(C)c1-c1ccn2ncc(C(=O)Nc3cc(-c4noc(C5CN(C(=O)[C@H]6C[C@@H]6F)C5)n4)sc3C)c2c1` [Example 371] it is above 1000 nM. On to `Cc1ccc(-c2noc([C@H]3C[C@@H]3F)n2)cc1NC(=O)c1cnn2cc(-c3cn(C(F)F)nn3)ccc12` [Example 107], for which the EC50 in experiment [1] is below 100 nM.
